In patent US20120277312A1, “Ethylgallate and Related Compounds as a Treatment for Sepsis and Septic Shock” (priority 2009, published 2012):

How the values were obtained:
[1] = system: lysozyme's vasodilatory effect in canine carotid artery preparation; assay: Lysozyme-induced vasodilation in canine carotid artery preparation (in-vitro)
Description: Lysozyme produces vasodilation by intrinsically generating hydrogen peroxide (H2O2) that leads to activation of signaling pathways resulting in these hemodynamic effects (7).
Ethyl gallate is added to food as an antioxidant. It is the ethyl ester of gallic acid. Though found naturally in a variety of plant sources including walnuts (8), ethyl gallate is produced from gallic acid and ethanol (9). […] It is of note that if a substance could not inhibit lysozyme's effect in-vitro, then it would be worthless to pursue an in-vivo study.

non-septic dog = assay: Ethyl gallate infusion in non-septic dogs; format: in vivo
From the text: The effect of ethyl-gallate treatment on hemodynamics in the non-septic animal was different from that found in the septic animal. In this protocol, 5 grams of ethyl-gallate were given in a similar manner over the course of the 5 hr treatment-phase of the study.
We have thus far studied 5 dogs in septic shock in which ethyl gallate was infused. We have compared the results obtained in this group with those found in septic animals (n=5) in which this treatment was not given. In addition, in preliminary experiments, we have looked at the effect of ethyl gallate infusion on hemodynamics in non-septic animals (n=3). In a time control non-septic group in which placebo (normal saline solution) was given, we have studied one animal.
The purpose of this study was to determine whether ethyl-gallate could reverse the fall in MAP that occurs in this sepsis model. Ethyl gallate was infused after MAP pressure fell approximately 30 to 40% from the baseline value in which this decline in MAP was not responsive to volume infusion to return Pwp to the baseline value (septic shock condition). This approach would be consistent with that observed in the clinical situation in which vasopressors, such as norepinephrine would be given at this interval. In the two sepsis groups, the animals were allocated in randomized fashion in which one received ethyl-gallate and volume infusion, while in the other, volume infusion alone was given. In the two non-sepsis groups, one received ethyl-gallate while the other received placebo treatment. In the non-sepsis groups, only maintenance volume for anesthesia and for placebo drugs was given over the course of the experiment.

[2] = system: lysozyme-induced myocardial depression; assay: Lysozyme-induced myocardial depression, in-vitro experiments; conditions: previous in-vitro experiments
From the text: Usually, when one increases the blood pressure in septic shock, there is the potential for stroke-volume and cardiac out to fall, since the heart has to pump against a greater load. Particularly, in septic shock, cardiac function is depressed.

[3] = non-septic dogs, 5 grams over 5 hr
[4] = non-septic dogs, ethyl-gallate infusion

Question: For `CCOC(=O)c1cc(O)c(O)c(O)c1` [ethyl gallate], which “prevention of vasodilation caused by lysozyme” value ([1]; canine carotid artery and superior mesenteric arterial preparations) is on record?
Answer: prevented

Question: And the “block of lysozyme's vasodilatory effect” value ([1]; canine carotid artery preparation, in-vitro)?
Answer: blocked

Question: What about the heart rate effect (non-septic dog; non-septic dog, after infusion, FIG. 7) of the same compound?
Answer: slight tachycardia

Question: What about the “SVR as compared with pre-treatment” value (non-septic dog; [3]) of the same compound?
Answer: decrease

Question: What about the “change in MAP” value (non-septic dog; [3]) of the same compound?
Answer: did not cause a change

Question: And the CO (non-septic dog; [4])?
Answer: appeared to increase

Question: What about the SV (non-septic dog; [4]) of the same compound?
Answer: appeared to increase

Question: And the SW (non-septic dog; [4])?
Answer: appeared to increase

Question: And the “prevention of lysozyme-induced myocardial depression” value [2]?
Answer: prevents
